{"source": "patent US8415501B2", "about": "“Methods and compositions for making and using polymorphs of cinacalcet” (Amgen, Inc., priority 2006, dated 2013)", "key": {"[1]": {"assay": "solid-form stability of cinacalcet HCl polymorphs", "description": "The present invention describes an additional third form of the compound. […] The present invention is directed to a novel polymorph Form III."}, "[2]": {"system": "patients with parathyroid carcinoma", "conditions": "cited from earlier work"}, "cytochrome P450 2D6": {"molecular_target": "cytochrome P450 2D6 (Homo sapiens, UniProt P10635)", "sequence (P10635 whole entry)": "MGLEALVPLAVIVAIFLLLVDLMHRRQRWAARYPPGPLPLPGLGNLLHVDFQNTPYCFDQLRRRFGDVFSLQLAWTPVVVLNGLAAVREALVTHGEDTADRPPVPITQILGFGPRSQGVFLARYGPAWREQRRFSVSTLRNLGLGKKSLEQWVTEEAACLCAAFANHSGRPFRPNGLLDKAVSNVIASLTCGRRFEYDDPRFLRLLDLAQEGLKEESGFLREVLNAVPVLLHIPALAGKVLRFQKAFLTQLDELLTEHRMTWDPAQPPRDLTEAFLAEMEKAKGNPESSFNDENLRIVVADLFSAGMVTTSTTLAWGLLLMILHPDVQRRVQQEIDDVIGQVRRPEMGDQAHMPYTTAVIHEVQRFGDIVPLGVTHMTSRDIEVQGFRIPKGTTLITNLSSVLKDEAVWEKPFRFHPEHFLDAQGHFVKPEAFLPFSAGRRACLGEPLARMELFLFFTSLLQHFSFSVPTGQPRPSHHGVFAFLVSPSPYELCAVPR", "conditions": "cited from earlier work"}}}
{"molecule": "C[C@@H](NCCCc1cccc(C(F)(F)F)c1)c1cccc2ccccc12.Cl", "note": "[Form III, N-[1-(R)-(−)-(1-naphthyl)ethyl]-3-[3-(trifluoromethyl)phenyl]-1-aminopropane hydrochloride]", "values": [{"measurement": "thermodynamic stability of the crystalline form", "setting": "[1]; solvent systems and crystallization methods, XRPD analysis", "result": "metastable form"}]}
{"molecule": "C[C@@H](NCCCc1cccc(C(F)(F)F)c1)c1cccc2ccccc12.Cl", "note": "[Form II]", "values": [{"measurement": "stability of the crystalline form", "setting": "[1]; room temperature", "result": "unstable at room temperature"}]}
{"molecule": "C[C@@H](NCCCc1cccc(C(F)(F)F)c1)c1cccc2ccccc12.Cl", "note": "[Sensipar®, N-[1-(R)-(−)-(1-naphthyl)ethyl]-3-[3-(trifluoromethyl)phenyl]-1-aminopropane hydrochloride]", "values": [{"measurement": "effect on calcium levels", "setting": "[2]", "result": "reduce high levels of calcium"}, {"measurement": "metabolizing enzyme", "setting": "cytochrome P450 2D6", "result": "metabolized by cytochrome P450 2D6"}]}
